In PubChem BioAssay (NCI):
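Values below derive from 48-hour exposures of cells grown in 96-well plates, with endpoints linearly interpolated between the two concentrations bracketing the appropriate inhibition level. At the GI50, growth is halved. The concentration for full growth arrest is given as TGI.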

Key:
Assay in all cases: DTP human tumour cell line panel, 48 h
[1] = test system: 786-0 renal
[2] = test system: A549 NSCLC
[3] = test system: ACHN renal
[4] = test system: BT-549 breast
[5] = test system: CAKI-1 renal
[6] = test system: CCRF-CEM leukemia
[7] = test system: COLO 205 colon
[8] = test system: DU-145 prostate
[9] = test system: EKVX NSCLC
[10] = test system: HCC-2998 colon
[11] = test system: HCT-116 colon
[12] = test system: HCT-15 colon
[13] = test system: HOP-62 NSCLC
[14] = test system: HOP-92 NSCLC
[15] = test system: HS 578T breast
[16] = test system: HT29 colon
[17] = test system: IGROV1 ovarian
[18] = test system: K-562 leukemia
[19] = test system: KM12 colon
[20] = test system: LOX IMVI melanoma
[21] = test system: M14 melanoma
[22] = test system: MCF7 breast
[23] = test system: MDA-MB-231 breast
[24] = test system: MDA-MB-435
[25] = test system: MOLT-4 leukemia
[26] = test system: NCI-H226 lung
[27] = test system: NCI-H23 lung
[28] = test system: NCI-H460 lung
[29] = test system: NCI-H522 lung
[30] = test system: NCI/ADR-RES ovarian
[31] = test system: OVCAR-3 ovarian
[32] = test system: OVCAR-4 ovarian
[33] = test system: OVCAR-5 ovarian
[34] = test system: OVCAR-8 ovarian
[35] = test system: PC-3 prostate
[36] = test system: RPMI-8226 leukemia
[37] = test system: RXF 393 renal
[38] = test system: SF-268 CNS
[39] = test system: SF-295 CNS
[40] = test system: SF-539 CNS
[41] = test system: SK-MEL-2 melanoma
[42] = test system: SK-MEL-28 melanoma
[43] = test system: SK-MEL-5 melanoma
[44] = test system: SK-OV-3 ovarian
[45] = test system: SN12C renal
[46] = test system: SNB-19 CNS
[47] = test system: SNB-75 CNS
[48] = test system: SW-620 colon
[49] = test system: T-47D breast
[50] = test system: TK-10 renal
[51] = test system: U251 CNS
[52] = test system: UACC-257 melanoma
[53] = test system: UACC-62 melanoma
[54] = test system: UO-31 renal

In the case of `O=C(N/N=C/c1coc2ccc(Cl)cc2c1=O)c1ccncc1`, the GI50 [1] is reported as 55.3 µM, the TGI [1] is reported as > 100 µM and the GI50 [2] is reported as 98.2 µM. For the same compound, the TGI [2] was > 100 µM, the GI50 [3] was 29.9 µM and the TGI [3] was > 100 µM. The GI50 [4] was 71.3 µM, the TGI [4] was > 100 µM and the GI50 [5] was 74.1 µM. For the same compound, the TGI [5] was > 100 µM, the GI50 [6] was 28.1 µM and the TGI [6] was > 100 µM. The GI50 [7] was > 100 µM, the TGI [7] was > 100 µM and the GI50 [8] was > 100 µM. For the same compound, the TGI [8] was > 100 µM, the GI50 [9] was 44.6 µM and the TGI [9] was > 100 µM. For the same compound, the GI50 [10] was 30.3 µM, the TGI [10] was 72.3 µM and the GI50 [11] was 40.3 µM. For the same compound, the TGI [11] was > 100 µM, the GI50 [12] was 44.4 µM and the TGI [12] was > 100 µM. The GI50 [13] was 39.7 µM, the TGI [13] was > 100 µM and the GI50 [14] was 93.8 µM. For the same compound, the TGI [14] was > 100 µM, the GI50 [15] was 32.6 µM and the TGI [15] was > 100 µM. For the same compound, the GI50 [16] was > 100 µM, the TGI [16] was > 100 µM and the GI50 [17] was 24.8 µM. The TGI [17] was > 100 µM, the GI50 [18] was 9.49 µM and the TGI [18] was 66.9 µM. The GI50 [19] was 58.4 µM, the TGI [19] was > 100 µM and the GI50 [20] was 38.6 µM. The TGI [20] was > 100 µM, the GI50 [21] was 37.5 µM and the TGI [21] was > 100 µM. For the same compound, the GI50 [22] was 47.2 µM, the TGI [22] was > 100 µM and the GI50 [23] was 80.6 µM. The TGI [23] was > 100 µM, the GI50 [24] was 73 µM and the TGI [24] was > 100 µM. For the same compound, the GI50 [25] was 21.1 µM, the TGI [25] was 71.2 µM and the GI50 [26] was 38.6 µM. For the same compound, the TGI [26] was > 100 µM, the GI50 [27] was 38.8 µM and the TGI [27] was > 100 µM. For the same compound, the GI50 [28] was 68.2 µM, the TGI [28] was > 100 µM and the GI50 [29] was 58.2 µM. For the same compound, the TGI [29] was > 100 µM, the GI50 [30] was 35.5 µM and the TGI [30] was > 100 µM. The GI50 [31] was 68.5 µM, the TGI [31] was > 100 µM and the GI50 [32] was > 100 µM. For the same compound, the TGI [32] was > 100 µM, the GI50 [33] was > 100 µM and the TGI [33] was > 100 µM. For the same compound, the GI50 [34] was 35.6 µM, the TGI [34] was > 100 µM and the GI50 [35] was 59.1 µM. The TGI [35] was > 100 µM, the GI50 [36] was 16.6 µM and the TGI [36] was > 100 µM. For the same compound, the GI50 [37] was 65.9 µM, the TGI [37] was > 100 µM and the GI50 [38] was 89.7 µM. The TGI [38] was > 100 µM, the GI50 [39] was 50.1 µM and the TGI [39] was > 100 µM. The GI50 [40] was 75.9 µM, the TGI [40] was > 100 µM and the GI50 [41] was 74.3 µM. For the same compound, the TGI [41] was > 100 µM, the GI50 [42] was > 100 µM and the TGI [42] was > 100 µM. For the same compound, the GI50 [43] was 44.8 µM, the TGI [43] was > 100 µM and the GI50 [44] was > 100 µM. The TGI [44] was > 100 µM, the GI50 [45] was 43.2 µM and the TGI [45] was > 100 µM. The GI50 [46] was > 100 µM, the TGI [46] was > 100 µM and the GI50 [47] was 49.4 µM. For the same compound, the TGI [47] was > 100 µM, the GI50 [48] was > 100 µM and the TGI [48] was > 100 µM. For the same compound, the GI50 [49] was > 100 µM, the TGI [49] was > 100 µM and the GI50 [50] was 17.2 µM. For the same compound, the TGI [50] was 52.5 µM, the GI50 [51] was 39.7 µM and the TGI [51] was > 100 µM. For the same compound, the GI50 [52] was 56.8 µM, the TGI [52] was > 100 µM and the GI50 [53] was 46.5 µM. For the same compound, the TGI [53] was > 100 µM, the GI50 [54] was 58.4 µM and the TGI [54] was > 100 µM.
